Test system: G proteins on NCI-H716 cells
Test: Radiometric [35S]GTPγS binding assay with NCI-H716 cell membranes
Type: biochemical, human
Conditions: for GTPγS binding to G proteins as compared to non-specific binding (NSB): NCI-H716 cell membrane fractions, 10 μl 50 mM compound in 50 μl assay, 2 hours at 25° C.; for effect of added transducin on the level of GTPγS binding to G proteins: transducin 4 μg/50 μl assay added together with compound (FIG. 4C, 5C)
Method: [^35S] GTPγS binding assays were performed in triplicate in 96-well plates [see Northup et al., J. Biol. Chem., 257, 11416-23 (1982)]. To each well the following was added and allowed to incubate for 2 hours at 25° C.: […] of a 2× buffer (5 mM HEPES pH 7.8, 1 μM GTPγS, 4 μCi/ml [^35S]GTPγS); 10 μl 50 mM dextromethorphan or doxylamine; and 15 μl ([…]) NCI-H7-16 cell membranes or supernatant (supernatant from NCI-H716 cells spun at 900 g (S1), pellets from NCI-H716 cells spun at 900 g (P1), and pellets from NCI-H716 cells spun at 100,000 g (P2)). Where indicated, transducin was also added (4 μg/50 μl assay). The total assay volume per well was 50 μl.
To separate the free [^35S] GTPγS from the [^35S] GTPγS that bound to G proteins, 40 μl of the mixture was filtered using a pre-wet Millipore Multiscreen Filtration opaque 96-well plate (0.45 μm mixed cellulose acetate, #MHABN4550). The samples were washed three times with 0.2 ml ice-cold wash buffer (0.5 M Tris-HCl, 0.04 M-magnesium chloride 6H20, 1 M sodium chloride) using a Whatman Polyfiltronics manifold under pressure from a Gast vacuum pump (#DOA-P104 AA) set to 10 PSI. The rubber manifold of the Multiscreen plates was removed and the filters were allowed to dry under warm lights and a fan for 15 minutes.
The plates were then fitted with adapter plates (Packard #6005178) and 30 μl Microscint PS (#6013631) was added to each well. Next, the plates were heat sealed with Packard TopSeal-S sealing film (#6005161) using a Packard Micromate 496 heat sealer. Radioactivity bound to the filter plates was counted in a Packard Top Count NXT scintillation counter.

| Compound | amount of compound needed to saturate NCI-H716 cell membranes in GTPγS binding (2 μg of NCI-H716 cell membranes (FIG. 6B)) | GTPγS binding to G proteins in the absence of transducin (NCI-H716 cell fractions, no transducin added (FIG. 4A)) | GTPγS binding to G proteins as compared to non-specific binding (NSB) | effect of added transducin on the level of GTPγS binding to G proteins |
| --- | --- | --- | --- | --- |
| COc1ccc2c(c1)[C@]13CCCC[C@@H]1[C@H](C2)N(C)CC3 [dextromethorphan] | 10 mM | increased the binding to G proteins | increase this binding | little effect |
| CN(C)CCOC(C)(c1ccccc1)c1ccccn1 (stereo not drawn) [doxylamine] | – | – | increase this binding | significantly increased the binding to G proteins |

Reference: patent US20050244810A1, “Taste signaling in gastrointestinal cells” (priority 2003, published 2005)
